Measurements from ChEMBL document CHEMBL4364309, “Rigidification Dramatically Improves Inhibitor Selectivity for RAF Kinases” (ACS Med Chem Lett, 2019).

Assays:
[1] = molecular target: T1, Serine/threonine-protein kinase B-raf (Homo sapiens, UniProt P15056, V600E); test: Inhibition of recombinant His-tagged BRAF V600E mutant (unknown origin) (444-723 residues) expressed in Escherichia coli BL21(DE3)-RIL using MEKK97R as substrate assessed as reduction in phosphorylation incubated for 20 mins by immunoblot assay
T1 sequence (P15056 2-766 V600E limits assumed): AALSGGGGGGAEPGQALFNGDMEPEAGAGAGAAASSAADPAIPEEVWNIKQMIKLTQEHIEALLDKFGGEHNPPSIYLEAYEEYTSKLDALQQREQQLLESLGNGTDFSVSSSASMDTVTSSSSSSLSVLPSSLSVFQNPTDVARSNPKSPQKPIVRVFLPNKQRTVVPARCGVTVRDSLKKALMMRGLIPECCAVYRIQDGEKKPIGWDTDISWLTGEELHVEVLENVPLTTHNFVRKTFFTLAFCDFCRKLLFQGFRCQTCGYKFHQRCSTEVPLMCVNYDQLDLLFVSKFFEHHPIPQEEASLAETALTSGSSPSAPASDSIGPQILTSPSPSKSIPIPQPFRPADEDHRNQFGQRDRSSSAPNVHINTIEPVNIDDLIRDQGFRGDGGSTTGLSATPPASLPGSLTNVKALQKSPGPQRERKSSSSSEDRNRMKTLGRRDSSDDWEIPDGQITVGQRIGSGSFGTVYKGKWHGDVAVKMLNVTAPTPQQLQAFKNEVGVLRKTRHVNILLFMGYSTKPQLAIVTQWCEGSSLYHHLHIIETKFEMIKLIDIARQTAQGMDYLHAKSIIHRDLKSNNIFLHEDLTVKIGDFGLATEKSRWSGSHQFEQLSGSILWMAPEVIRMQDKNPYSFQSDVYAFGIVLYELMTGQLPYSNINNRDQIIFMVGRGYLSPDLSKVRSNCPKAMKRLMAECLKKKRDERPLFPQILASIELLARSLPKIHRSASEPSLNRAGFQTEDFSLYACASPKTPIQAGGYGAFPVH

[2] = molecular target: Serine/threonine-protein kinase B-raf (Homo sapiens) (UniProt P15056); test: Inhibition of BRAF (unknown origin) at 1 uM relative to control
Serine/threonine-protein kinase B-raf (Homo sapiens), sequence (P15056 whole entry): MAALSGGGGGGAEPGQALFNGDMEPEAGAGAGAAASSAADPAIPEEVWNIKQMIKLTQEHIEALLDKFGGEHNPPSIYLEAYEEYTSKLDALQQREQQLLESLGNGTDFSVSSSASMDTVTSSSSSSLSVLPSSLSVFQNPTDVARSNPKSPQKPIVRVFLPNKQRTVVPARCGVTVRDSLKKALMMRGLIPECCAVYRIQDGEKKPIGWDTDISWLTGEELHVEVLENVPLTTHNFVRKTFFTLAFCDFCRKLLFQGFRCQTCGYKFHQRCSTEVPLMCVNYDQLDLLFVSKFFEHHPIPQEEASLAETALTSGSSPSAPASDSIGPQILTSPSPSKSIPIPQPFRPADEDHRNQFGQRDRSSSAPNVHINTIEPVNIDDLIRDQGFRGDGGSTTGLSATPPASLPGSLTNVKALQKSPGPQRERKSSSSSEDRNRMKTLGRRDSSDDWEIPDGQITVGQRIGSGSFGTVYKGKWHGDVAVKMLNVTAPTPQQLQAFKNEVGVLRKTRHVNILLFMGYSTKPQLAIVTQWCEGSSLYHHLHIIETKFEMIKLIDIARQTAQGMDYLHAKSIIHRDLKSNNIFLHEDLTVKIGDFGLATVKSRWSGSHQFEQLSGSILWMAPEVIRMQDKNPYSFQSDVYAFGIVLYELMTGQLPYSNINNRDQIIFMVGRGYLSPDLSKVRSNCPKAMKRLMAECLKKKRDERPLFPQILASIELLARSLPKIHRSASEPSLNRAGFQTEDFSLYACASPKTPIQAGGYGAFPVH

[3] = molecular target: RAF proto-oncogene serine/threonine-protein kinase (Homo sapiens) (UniProt P04049); test: Inhibition of CRAF (unknown origin) at 1 uM relative to control
RAF proto-oncogene serine/threonine-protein kinase (Homo sapiens), sequence (P04049 whole entry): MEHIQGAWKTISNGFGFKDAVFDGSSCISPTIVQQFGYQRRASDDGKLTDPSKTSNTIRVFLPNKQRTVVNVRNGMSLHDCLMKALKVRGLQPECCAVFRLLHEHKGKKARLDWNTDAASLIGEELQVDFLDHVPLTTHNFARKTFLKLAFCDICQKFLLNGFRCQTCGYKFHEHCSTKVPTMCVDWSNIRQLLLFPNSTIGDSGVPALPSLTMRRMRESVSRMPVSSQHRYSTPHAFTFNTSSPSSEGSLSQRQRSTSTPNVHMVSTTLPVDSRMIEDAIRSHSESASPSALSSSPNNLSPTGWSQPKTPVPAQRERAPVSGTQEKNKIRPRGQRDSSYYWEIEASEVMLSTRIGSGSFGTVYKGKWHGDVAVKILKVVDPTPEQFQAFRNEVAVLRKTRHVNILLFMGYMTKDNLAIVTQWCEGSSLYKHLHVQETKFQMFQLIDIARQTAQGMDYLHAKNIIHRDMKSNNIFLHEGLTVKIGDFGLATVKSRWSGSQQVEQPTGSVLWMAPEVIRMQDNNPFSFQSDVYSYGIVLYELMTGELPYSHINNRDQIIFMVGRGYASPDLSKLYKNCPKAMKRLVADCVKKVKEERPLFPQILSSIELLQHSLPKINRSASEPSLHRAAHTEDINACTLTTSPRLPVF

A-375 = test: Antiproliferative activity at human A375 cells expressing BRAF V600E mutant assessed as reduction in cell viability incubated for 96 hrs by MTT assay; assay type: functional, cell-based; details: A-375, 96 h
[4] = molecular target: Protein-tyrosine kinase 6 (Homo sapiens) (UniProt Q13882); test: Inhibition of BRK (unknown origin) at 1 uM relative to control
Protein-tyrosine kinase 6 (Homo sapiens), sequence (Q13882 whole entry, looked up): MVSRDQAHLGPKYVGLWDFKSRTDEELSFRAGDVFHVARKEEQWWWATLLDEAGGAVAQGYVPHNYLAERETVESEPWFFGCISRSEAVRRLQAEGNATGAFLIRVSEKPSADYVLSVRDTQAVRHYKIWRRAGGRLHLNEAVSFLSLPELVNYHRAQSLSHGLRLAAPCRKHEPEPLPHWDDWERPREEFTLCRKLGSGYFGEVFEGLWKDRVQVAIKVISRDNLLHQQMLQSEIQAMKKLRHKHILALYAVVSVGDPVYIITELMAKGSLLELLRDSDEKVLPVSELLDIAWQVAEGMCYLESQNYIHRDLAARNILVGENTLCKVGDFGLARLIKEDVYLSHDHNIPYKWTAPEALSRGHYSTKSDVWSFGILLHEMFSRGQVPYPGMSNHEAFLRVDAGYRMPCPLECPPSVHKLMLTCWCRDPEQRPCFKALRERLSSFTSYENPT

[5] = molecular target: Macrophage colony-stimulating factor 1 receptor (Homo sapiens) (UniProt P07333); test: Inhibition of FMS (unknown origin) at 1 uM relative to control
Macrophage colony-stimulating factor 1 receptor (Homo sapiens), sequence (P07333 whole entry): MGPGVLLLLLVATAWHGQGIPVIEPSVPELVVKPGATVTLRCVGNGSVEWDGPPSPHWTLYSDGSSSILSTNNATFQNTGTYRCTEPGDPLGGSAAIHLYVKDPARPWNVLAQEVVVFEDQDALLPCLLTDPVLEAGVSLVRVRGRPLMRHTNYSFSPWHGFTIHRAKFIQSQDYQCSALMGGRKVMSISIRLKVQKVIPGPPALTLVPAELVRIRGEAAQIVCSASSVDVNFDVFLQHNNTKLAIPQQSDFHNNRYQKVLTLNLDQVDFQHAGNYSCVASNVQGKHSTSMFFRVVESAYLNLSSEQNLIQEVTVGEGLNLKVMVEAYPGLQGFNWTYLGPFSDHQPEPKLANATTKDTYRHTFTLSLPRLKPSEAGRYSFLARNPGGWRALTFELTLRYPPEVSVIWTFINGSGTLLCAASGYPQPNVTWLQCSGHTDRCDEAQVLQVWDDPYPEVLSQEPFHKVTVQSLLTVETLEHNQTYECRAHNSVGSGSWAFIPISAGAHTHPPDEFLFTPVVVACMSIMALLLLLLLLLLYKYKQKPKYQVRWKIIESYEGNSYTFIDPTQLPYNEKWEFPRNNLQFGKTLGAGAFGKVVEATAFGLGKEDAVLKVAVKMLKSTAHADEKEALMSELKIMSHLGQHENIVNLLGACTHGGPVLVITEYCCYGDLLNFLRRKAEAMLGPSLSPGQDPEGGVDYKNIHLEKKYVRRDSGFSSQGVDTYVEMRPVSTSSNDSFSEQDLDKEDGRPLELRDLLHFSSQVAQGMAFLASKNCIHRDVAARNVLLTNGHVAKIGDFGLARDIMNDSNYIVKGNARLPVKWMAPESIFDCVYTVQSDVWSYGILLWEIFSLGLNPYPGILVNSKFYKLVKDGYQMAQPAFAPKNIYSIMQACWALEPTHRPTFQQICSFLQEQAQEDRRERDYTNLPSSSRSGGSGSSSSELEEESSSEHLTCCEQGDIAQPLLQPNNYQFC

[6] = molecular target: T1, Serine/threonine-protein kinase B-raf; test: Inhibition of BRAF V600E in human A375 cells assessed as reduction in ERK phosphorylation incubated for 1 hr by immunoblot analysis; assay type: cell-based
Malme-3M = test: Growth inhibition of human MALME-3M cells harboring BRAF V600E mutant incubated for 48 hrs by sulforhodamine B assay; assay type: functional
MDA-MB-435 = test: Growth inhibition of human MDA-MB-435 cells harboring BRAF V600E mutant incubated for 48 hrs by sulforhodamine B assay; assay type: functional
SK-MEL-5 = test: Growth inhibition of human SK-MEL-5 cells harboring BRAF V600E mutant incubated for 48 hrs by sulforhodamine B assay; assay type: functional
[7] = test system: Serine/threonine-protein kinase B-raf (Homo sapiens), P15056 [V600E]; test: Potency index, ratio vemurafenib IC50 to test compound IC50 for Inhibition of recombinant His-tagged BRAF V600E mutant (unknown origin) (444 to 723 residues) expressed in Escherichia coli BL21(DE3)-RIL
Serine/threonine-protein kinase B-raf (Homo sapiens), P15056 [V600E], sequence (P15056 whole entry V600E, the tested form may be a part): as the sequence (P15056 whole entry) above, with V600E counted along it

Row | IC50 [1] [nM] | IC50 (A-375) [nM] | SMILES | also measured
1 | > 300 | – | CC(C)n1nc(C#Cc2cccc3c(Nc4cccc(C(F)(F)F)c4)ncnc23)c2c(N)ncnc21 | –
2 | 140 | > 10000 | CC(C)n1nc(C#Cc2cccc3c(Nc4cccc(C(F)(F)F)c4)nccc23)c2c(N)ncnc21 | inhibition [2]: > 85%; inhibition [3]: > 85%
3 | > 300 | – | CC(C)n1nc(C#Cc2cccc3c(Oc4cccc(C(F)(F)F)c4)nccc23)c2c(N)ncnc21 | –
4 | > 300 | – | CC(C)n1nc(C#Cc2cccc3c(Nc4cccc(C(F)(F)F)c4)cccc23)c2c(N)ncnc21 | –

Continued, compound first:

Row | SMILES | IC50 [1] [nM] | IC50 (A-375) [nM] | also measured
5 | CCCn1nc(C#Cc2cccc3c(Nc4cccc(C(F)(F)F)c4)nccc23)c2c(N)ncnc21 | > 300 | – | –
6 | Cc1cn(-c2cc(Nc3nccc4c(C#Cc5nn(C(C)C)c6ncnc(N)c56)cccc34)cc(C(F)(F)F)c2)cn1 | > 300 | – | –
7 | CCCS(=O)(=O)Nc1ccc(F)c(C(=O)c2c[nH]c3ncc(-c4ccc(Cl)cc4)cc23)c1F | – | – | inhibition [2]: > 85%; inhibition [3]: > 85%
8 | Cc1ccc(Nc2nccc3c(C#Cc4nn(C(C)C)c5ncnc(N)c45)cccc23)cc1C(F)(F)F | > 300 | – | –
9 | CC(C)n1nc(C#Cc2cccc3c(Nc4ccc(Cl)c(C(F)(F)F)c4)nccc23)c2c(N)ncnc21 | > 300 | – | –
10 | CCn1nc(C#Cc2c(C)ccc3c(Nc4ccc(Cl)cc4)nccc23)c2c(N)ncnc21 | 8 | 417 | inhibition [2]: > 85%; inhibition [3]: > 85%; inhibition [4]: > 85%; inhibition [5]: > 85%; IC50 [6]: 420 nM; Activity (Malme-3M): Dose-dependent effect; GI (Malme-3M): 7.1 µM; Activity (MDA-MB-435): Dose-dependent effect; GI (MDA-MB-435): 4.6 µM; Activity (SK-MEL-5): Dose-dependent effect; GI (SK-MEL-5): 6.6 µM; Ratio IC50 [7]: 2
11 | CC(C)n1nc(C#Cc2cccc3c(Nc4ccc(Cl)cc4)nccc23)c2c(N)ncnc21 | 29 | > 10000 | –
12 | CCn1nc(C#Cc2cccc3c(Nc4cccc(C(F)(F)F)c4)nccc23)c2c(N)ncnc21 | 41 | > 10000 | –
13 | Cc1ccc2c(Nc3cccc(C(F)(F)F)c3)nccc2c1C#Cc1nn(C(C)C)c2ncnc(N)c12 | 21 | 869 | –
